Test in all cases: inhibition of tumour cell growth, NCI panel, 48 h
The subject of assay [1] is UO-31.
The test system of assay [2] is NCI-H460.
For assay [3], the system named is HL-60.
In assay [4] the test system is SK-MEL-2.
Assay [5] has as its system ACHN.
For assay [6], the system named is HOP-92.
The test system of assay [7] is NCI-H522.
In assay [8] the test system is OVCAR-5.
Assay [9] deals with TK-10.
In assay [10] the test system is OVCAR-4.
Assay [11] deals with Malme-3M.
For assay [12], the system named is SK-OV-3.
The test system of assay [13] is CAKI-1.
The test system of assay [14] is DMS-114.
Assay [15] deals with HCT-116.
Assay [16] deals with SF-268.
Assay [17] concerns UACC-257.
Assay [18] relates to NCI-H23.
Assay [19] has as its system COLO 205.

Consider ten compounds from ChEMBL document CHEMBL1201862, “PubChem BioAssay data set” (2004).

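Where inhibition never reached the appropriate level, the endpoint shown equals the highest concentration tested. Otherwise, values were interpolated linearly from a five-concentration, 48-hour dose response in 96-well plates. The concentration for 50% growth inhibition is given as GI50.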 Activity calls are given as the source filed them. Rule as the data show it: active = GI50 up to about 1.1 µM and inactive = higher.

With `O=C(CC1(O)C(=O)Nc2ccccc21)c1ccccc1O` (configuration not stated), the GI50 in [1] is 91.6 µM (inactive); in [2], > 100 µM (inactive); in assay [3] it was > 100 µM (inactive); in assay [4], > 100 µM (inactive); in [5] it was > 100 µM (inactive); in [6], > 100 µM (inactive). The GI50 in [7], in assay [8], in assay [9], in assay [10], in [11] and in assay [12] was > 100 µM (inactive) each time. The GI50 in [13], in assay [14], in assay [15], in assay [16], in assay [17] and in assay [18] was > 100 µM (inactive) throughout. The GI50 in assay [19] was > 100 µM (inactive).
As for `CC(C)(C)c1cc2c(OP(c3ccccc3)c3ccccc3)c(c1)Cc1cc(C(C)(C)C)cc(c1OP(c1ccccc1)c1ccccc1)Cc1cc(C(C)(C)C)cc(c1OP(c1ccccc1)c1ccccc1)Cc1cc(C(C)(C)C)cc(c1OP(c1ccccc1)c1ccccc1)C2`, the GI50 in assay [1], in assay [2], in [3], in assay [4], in assay [5] and in assay [6] was > 5 µM (inactive) in each case. Further, the GI50 in assay [7], in assay [8], in assay [9], in assay [10], in assay [11] and in assay [12] was > 5 µM (inactive) in each case. Moreover, the GI50 in assay [13], in [14], in assay [15], in assay [16], in [17] and in [18] was > 5 µM (inactive) in each case. For the same compound, the GI50 in assay [19] was > 5 µM (inactive).
For the compound `COc1cc(Nc2nc3cc(C)ccc3nc2-c2ccccc2)cc(OC)c1OC`, the GI50 in assay [1] is 17.2 µM (inactive); in assay [2], 15.8 µM (inactive); in assay [3], 22.5 µM (inactive); in assay [4], 23 µM (inactive); in assay [5], 26.7 µM (inactive); in assay [6], 23.2 µM (inactive). Besides, the GI50 was 25.6 µM (inactive) in assay [7]; > 100 µM (inactive) in assay [8]; 42 µM (inactive) in [9]; 33 µM (inactive) in [10]; 29.6 µM (inactive) in [11]; > 100 µM (inactive) in [12]. Also, the GI50 in assay [13] is 27.5 µM (inactive); in assay [14], 6.9 µM (inactive); in [15] it was 19.9 µM (inactive); in assay [16], 11.2 µM (inactive); in assay [17] it was 47.5 µM (inactive); in assay [18] it was 22.8 µM (inactive). The GI50 in [19] was 20.2 µM (inactive).
With `COC(=O)C12Oc3ccc(-c4ccc5c(c4O)C(=O)C4=CCC(C)C(O)C4(C(=O)OC)O5)c(O)c3C(=O)C1=CCC(C)C2O` (configuration not stated), the GI50 was 1.46 µM (inactive) in assay [1]; 1.97 µM (inactive) in assay [2]; 0.935 µM (active) in [3]; 1.41 µM (inactive) in assay [4]; 1.34 µM (inactive) in assay [5]; 1.26 µM (inactive) in assay [6]. For the same compound, the GI50 in [7] was 1.01 µM (active); in assay [8], 2.13 µM (inactive); in assay [9], 2.44 µM (inactive); in assay [10], 2.21 µM (inactive); in [11], 1.53 µM (inactive); in assay [12] it was 1.96 µM (inactive). Also, the GI50 in [13] is 2.07 µM (inactive); in assay [14] it was 1.3 µM (inactive); in [15], 0.925 µM (active); in assay [16], 1.1 µM (active); in assay [17], 1.82 µM (inactive); in [18], 1.37 µM (inactive). In addition, the GI50 in assay [19] is 1.32 µM (inactive).
Turning to `C[C@@H](O)CCC(=O)c1ccoc1`, the GI50 in [1], in assay [2], in assay [3], in assay [4], in assay [5] and in assay [6] was > 100 µM (inactive) in each case. In addition, the GI50 in assay [7], in [8], in assay [9], in [10], in assay [11] and in assay [12] was > 100 µM (inactive) each time. For the same compound, the GI50 in assay [13], in assay [14], in [15], in [16], in assay [17] and in [18] was > 100 µM (inactive) throughout. In addition, in assay [19], the GI50 was > 100 µM (inactive).
As to `O=C(c1cc(=O)c2ccc(O)cc2o1)c1ccc(Cl)cc1Cl`, the GI50 was 5.92 µM (inactive) in assay [1]; 6.01 µM (inactive) in assay [2]; 1.26 µM (inactive) in assay [3]; 26 µM (inactive) in assay [4]; 5.24 µM (inactive) in [5]; 32.8 µM (inactive) in assay [6]. The GI50 in assay [7] is 9.89 µM (inactive); in [8], > 74.8 µM (inactive); in assay [9] it was 38.5 µM (inactive); in assay [10] it was 12 µM (inactive); in [11] it was 34.4 µM (inactive); in assay [12], > 62.1 µM (inactive). Further, the GI50 was > 69.7 µM (inactive) in assay [13]; 3.92 µM (inactive) in assay [14]; 13.6 µM (inactive) in assay [15]; 13.8 µM (inactive) in [16]; 19.5 µM (inactive) in assay [17]; 24 µM (inactive) in [18]. In addition, in assay [19], the GI50 was 3.27 µM (inactive).
Turning to `COc1ccc(C)cc1-c1cc(Sc2ccccc2)c(-c2cc(C)ccc2OC)o1`, the GI50 in [1] is > 31.6 µM (inactive); in assay [2], > 31.6 µM (inactive); in assay [3] it was > 31.6 µM (inactive); in assay [4], > 10 µM (inactive); in [5], > 31.6 µM (inactive); in assay [6], > 31.6 µM (inactive). Also, the GI50 was > 31.6 µM (inactive) in assay [7]; > 100 µM (inactive) in [8]; > 31.6 µM (inactive) in assay [9]; > 31.6 µM (inactive) in assay [10]; > 31.6 µM (inactive) in [11]; > 31.6 µM (inactive) in assay [12]. The GI50 in [13], in [14], in assay [15], in assay [16], in assay [17] and in assay [18] was > 31.6 µM (inactive) each time. For the same compound, the GI50 in assay [19] was > 31.6 µM (inactive).
As to `O=c1[nH]c(-c2ccc(-c3nc4cc([N+](=O)[O-])ccc4c(=O)[nH]3)cc2)nc2cc([N+](=O)[O-])ccc12`, the GI50 in [1], in assay [2], in assay [3], in [4], in assay [5] and in assay [6] was > 100 µM (inactive) in each case. Besides, the GI50 in [7] is > 100 µM (inactive); in assay [8] it was > 100 µM (inactive); in assay [9], > 100 µM (inactive); in assay [10], 48.8 µM (inactive); in assay [11] it was > 100 µM (inactive); in assay [12], > 100 µM (inactive). The GI50 in [13], in [14], in [15], in [17], in assay [18] and in [19] was > 100 µM (inactive) in each case.
In the case of `CN(C)c1n/c(=N/c2cccc(Cl)c2)ss1`, the GI50 in [1] is 38.4 µM (inactive); in [2], 9.2 µM (inactive); in assay [3], 3.74 µM (inactive); in assay [4], 16.9 µM (inactive); in [5] it was 18.4 µM (inactive); in assay [6], 28.1 µM (inactive). Moreover, the GI50 was 1.16 µM (inactive) in [7]; 35 µM (inactive) in [8]; 55.2 µM (inactive) in assay [9]; 14.6 µM (inactive) in [10]; 14.1 µM (inactive) in assay [11]; 68.9 µM (inactive) in assay [12]. Moreover, the GI50 in [13] was 19.1 µM (inactive); in assay [14] it was 11.2 µM (inactive); in assay [15], 11.9 µM (inactive); in assay [16], 13.6 µM (inactive); in assay [17] it was 15.6 µM (inactive); in assay [18], 12.9 µM (inactive).
For `COC(=O)n1c(C[P+](c2ccccc2)(c2ccccc2)c2ccccc2)cc2ccccc21`, the GI50 is 0.604 µM (active) in assay [1]; 1.43 µM (inactive) in assay [2]; 0.869 µM (active) in [3]; 0.661 µM (active) in [4]; 3.87 µM (inactive) in [5]; 0.0318 µM (active) in assay [6]. The GI50 in assay [7] was 1 µM (active); in assay [8], 2.11 µM (inactive); in assay [9], 3.34 µM (inactive); in assay [10], 5.92 µM (inactive); in [11], 3.47 µM (inactive); in assay [12], 0.652 µM (active). The GI50 in assay [13] was 2.06 µM (inactive); in [14], 1.09 µM (active); in assay [15] it was 1.11 µM (active); in assay [16], 2.93 µM (inactive); in assay [18] it was 1.86 µM (inactive); in assay [19], 1.26 µM (inactive).
